Patent US20130202614A1, “AUTOTAXIN PATHWAY MODULATION AND USES THEREOF” (B.S.R.C. "ALEXANDER FLEMING", priority 2010, published 2013)

Tests used:
ATX [1] = biological target: T1, ATX (Mus musculus, UniProt Q9R1E6); experiment: ATX activity assay (FS-3 cleavage) in plasma of saline- and BLM-treated mice; format: in vivo; conditions: both in saline- and BLM-treated mice
T1 construct: from tissue; host or cells: BAL fluid of WT mice exposed to aerosolised LPS
Protocol: […] […] Reactions were incubated at 37° C. in a Tecan Infinite 200 microplate reader (Tecan Trading AG, Switzerland) set to make fluorescence measurements every 5 min for 1 hour. Autotaxin activity was quantitated by measuring the rate of increase in fluorescence at 528 nm with excitation at 485 nm.

CIA in DBA/1 mice = experiment: Experimental arthritis (collagen induced arthritis, CIA) in mice; format: in vivo, mouse; conditions: injected intraperitoneally twice a week
WT mice = experiment: LPS-induced lung inflammation (aerosolised LPS) in mice; format: in vivo, mouse
Protocol: 6-8 week old littermate mice were divided into an experimental group that received aerosolised LPS (from Pseudomonas aeruginosa, 10 mg dissolved in 3 ml Normal Saline) and a control group that received Normal Saline instead. […] The LPS solution was administered by a custom-made nebuliser flowing at 4 l/min oxygen for 20-25 min into an airtight chamber containing 5-7 mice. All analyses were performed 24 h later.
Upon euthanasia, blood was drawn from the vena cava and was added to 50 mM EDTA for plasma preparations. Lungs were lavaged with an aliquot of 1 ml normal saline followed by 2 ml of saline (Bronchoalveolar Lavage Fluid. BALF). BALF aliquots were centrifuged; the cell pellets were combined and used for total cell counts with Trypan Blue while supernatants were snap-frozen. Lungs were then perfused with 10 ml of PBS through the spontaneous beating right ventricle and the left lung was snap-frozen for future analysis while the right lung was fixed in 10% neutral buffered formalin. Tissues were embedded in paraffin, and 5-μm-thick sections were cut at the median transverse level of the lungs. Sections were mounted on glass slides and stained with H&E.
Total protein concentration in BALFs was measured using the Bradford protein assay (Biorad, Hercules, Calif.) according to manufacturer's recommendations. OD readings of samples were converted to μg/ml using values obtained from a standard curve generated with serial dilutions of bovine serum albumin (50-500 μg/ml).

WT mice (C57/BL6) = experiment: BLM-induced pulmonary fibrosis in mice; format: in vivo, mouse
From the text: 8-12 week old littermate mice were divided into an experimental group that received intratracheal Bleomycin (BLM, 0.08 U) and a control group that received Normal Saline instead. Mice were sacrificed at 7 and 14 days post BLM instillation for pathology evaluation.
Age and sex-matched 6-8 week old WT (C57/Bl6) mice were divided in four study groups according to the treatment regime.
Group A (n=5) received i.p injections of Veh (water) twice per week for two weeks starting at day −1 and instilled with Saline intratracheally at day 0.
Group B (n=3) received i.p injections of BRP-LPA (10 mg/Kg) twice per week for two weeks starting at day −1 and instilled with Saline intratracheally at day 0.
Group C (n=9) received i.p injections of Veh twice per week for two weeks starting at day −1 and instilled with BLM (0.08 U) intratracheally at day 0.
Group D (n=8) received i.p injections of BRP-LPA (10 mg/Kg) twice per week for two weeks starting at day −1 and instilled with BLM (0.08 U) intratracheally at day 0. A schematic representation of the time course of the protocol is depicted below.
All mice were sacrificed at day 14 after BLM instillation for disease evaluation. […] Lungs were lavaged 3 times with 1 ml aliquots of saline (BAL) followed by perfusion through the right ventricle of the heart with 10 ml of PBS. BAL fluid was centrifuged and cell pellets were used for total cell counts with Trypan Blue while the supernatant was snap frozen.
Right lung was instilled with 1 ml of buffered formalin, dissected and fixed O/N in formalin. Left lung was snap frozen and used for soluble collagen measurements using the Sircol assay.
Schematic representation of BRP-LPA administration protocol. BRP-LPA (or water) was administered intraperioneally in mice starting one day before BLM (or Sal) instillation and every three other days until the end of the study (14 days). Pulmonary fibrosis was induced with a single i.t. instillation of BLM at day 0.
Soluble collagen measurements were performed using the Sircol reagent according to manufacture's recommendations.

ATX [2] = biological target: T1, ATX; experiment: ATX activity assay (FS-3 cleavage) in BAL fluids, LPS model; format: in vivo; conditions: intratracheal prior to LPS; 24 hr
Protocol: Autotaxin activity in BALF of mice was determined using the cleavage of the ATX-specific fluorogenic substrate FS-3 (Echelon Biosciences, UT, USA). Assays were conducted in a final volume of 100 μl comprising 20 μl 5× assay buffer (700 mM NaCl, 25 mM KCl, 5 mM MgCl2 and 250 mM Tris, pH 8.0), 20 μl of FS-3 (final concentration 2.5 μM) and 60 μl of BALF (diluted 1:2 in 1×PBS). Reactions were incubated at 37° C. in a Tecan Infinite 200 microplate reader (Tecan Trading AG, Switzerland) set to make fluorescence measurements every 5 min for 1 hour. Autotaxin activity was quantitated by measuring the rate of increase in fluorescence at 528 nm with excitation at 485 nm.

ATX [3] = experiment: ATX ELISA in plasma and BAL fluids of control and BLM treated mice; format: in vivo, mouse; conditions: saline treated, naive mice; same trend in BLM-treated mice
Protocol: To detect ATX in biological fluids, a direct ELISA assay was developed using the commercially available anti-phospholipase D polyclonal antibody (Cat. No. 10005375, Cayman chemical, USA). The bottom of a NUNC-IMMUNO 96 MicroWell Elisa plate was coated overnight with 100 μl of 1:200 diluted serum in 0.05 M carbonate/bicarbonate coating buffer, pH 9.5 (Cat. No. S7795/S7277, Sigma, Saint Louis, […]., USA), washed three times with 0.05% Tween-20 (Cat. No. P1379, Sigma, USA) in TBS and blocked with 0.1% Bovine Serum Albumin (Cat. No. A7888, Sigma, USA) in 0.05% TBST for 1 h at RT. For each ELISA assay, 100 μl of two-fold serial dilutions of recombinant ATX protein ranging from 0.1 to 1.6 μg/ml were plated as standard curve and treated as all samples.
The plate was then incubated with 0.5 μg/ml detection antibody for 1 h and washed three times with 0.05% TBST. Autotaxin antigen was then detected with an anti-rabbit HRP-labeled secondary antibody (Cat. No. 4010-05, SouthernBiotech, USA) that was developed with TMB substrate (Cat. No. […], Sigma, USA). Readings were obtained at 450 nm. All samples and standards were assayed in triplicates.

EAE mice = experiment: Experimental autoimmune encephalomyelitis (EAE), animal model of MS; format: in vivo, mouse; conditions: injected intraperitoneally twice a week at 10 mg/Kg
Protocol: Active EAE in wild-type C57Bl/6 mice was induced as described. Briefly, the mice were challenged in the […] with an emulsion containing 50 μg of MOG p35-55 peptide ( ) supplemented with 8 mg/ml heat-inactivated Mycobacterium tuberculosis (H37Ra strain; Difco Laboratories) in CFA (Difco Laboratories) on day 0 in the tail base. Booster immunization with an identical emulsion was given on both sides. Bordetella pertussis toxin (PT) (List Biologicals) were administered i.p. (200 ng/mouse) 48 h after the immunization. For induction of EAE in MOGi-cre/Atx^n/n mice, the doses for MOG35-55 peptide and PT were the same as for wild type mice Atx^n/n. From mice injected at 8 to 12 weeks of age, representative animals were fixed for immunohistochemistry (4% paraformaldehyde in phosphate-buffered saline) and then 7-μm thick frozen sections were used for immunohistochemistry, or fixed in 10% buffered formalin overnight at 4° C. for histopathology. […]
Mice were observed daily for clinical signs of EAE. The severity of EAE was evaluated and scored as follows: 0, no clinical disease; 1, tail paralysis; 2, hindlimb weakness and abnormal gait (incomplete paralysis of one or two hindlimbs); 3, paraplegia (complete paralysis of one or two hindlimbs); 4, quadriplegia; 5, moribund or dead animals.

Compound: CCCCCCCCCCCCCCCC(=O)OC[C@@H](O)CC(Br)P(=O)(O)O (stereo partly drawn) [BrP-LPA, 1-Bromo-3(S)-hydroxy-4-(palmitoyloxy)butyl-phosphonate]
- ATX activity in plasma (ATX [1]): reduced ATX activity
- disease development (clinical and histopathological analysis) (CIA in DBA/1 mice): attenuated disease development
- BAL fluid total cell counts (recruitment of neutrophils in the lungs) (WT mice; BrP-LPA 100 μg/mouse intratracheally prior to aerosolized LPS (10 mg)): 1.9×10^6±0.16
- BAL protein content (WT mice; LPS-exposed mice, vs vehicle-treated mice): significantly elevated
- LPS-induced lung inflammation and alveolar edema (histopathology, BALF total cell counts) (WT mice; intratracheal prior to LPS exposure, 24 hr): significant increases
- total protein concentration in BAL fluids (WT mice; saline treated mice): increased total protein concentration
- fibrosis development (histopathology, H/E lung sections) (WT mice (C57/BL6); 10 mg/Kg i.p. biweekly, 14 days after BLM, vs vehicle): development of focal areas of fibrosis with a patchy distribution in lung parenchyma
- soluble collagen accumulation (WT mice (C57/BL6); 10 mg/Kg i.p., 14 days after BLM, vs Veh-treated mice): significant reduction of collagen accumulation
- BAL total cell counts (WT mice (C57/BL6); 14 days post BLM administration, Brp- vs Veh-treated): did not differ
- total protein content in BAL fluids (WT mice (C57/BL6); vehicle- vs BrP-treated mice after BLM): did not differ
- ATX enzymatic activity in BAL fluids (ATX [2]): failed to detect lower levels of enzymatic activity
- levels of ATX in plasma and in BAL fluids (ATX [3]): non statistical increase
- disease development (clinical score) (EAE mice): attenuated disease development
